Measurements published in ChEMBL document CHEMBL4184293, “Structure-based design and biological evaluation of inhibitors of the pseudomonas aeruginosa heme oxygenase (pa-HemO)” (Bioorg Med Chem Lett, 2018).
The source made the active and inactive calls. The rule behind the calls is not given here.

What was measured:
Heme oxygenase = biological target: T1, Heme oxygenase (Pseudomonas aeruginosa, UniProt O69002); experiment: Binding affinity to Pseudomonas aeruginosa HemO by intrinsic fluorescence quenching assay
T1 sequence (O69002 whole entry): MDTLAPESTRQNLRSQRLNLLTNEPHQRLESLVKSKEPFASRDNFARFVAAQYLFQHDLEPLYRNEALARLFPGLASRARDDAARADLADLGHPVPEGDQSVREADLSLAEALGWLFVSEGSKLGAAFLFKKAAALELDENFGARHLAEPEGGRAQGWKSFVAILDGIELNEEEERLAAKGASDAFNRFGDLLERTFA

Pseudomonas aeruginosa [1] = experiment: Antibacterial activity against Pseudomonas aeruginosa PAO1 after 4 hrs in presence of heme or FeCl3; assay type: functional
Pseudomonas aeruginosa [2] = experiment: Antibiofilm activity against Pseudomonas aeruginosa PAO1 after 24 hrs by crystal violet staining based assay; assay type: functional
[3] = biological target: T2, Heme oxygenase (Pseudomonas aeruginosa) (UniProt O69002); experiment: Binding affinity to Pseudomonas aeruginosa HemO assessed as chemical shift perturbations after 2 hrs by 15N-1H TROSY HSQC NMR method
T2 sequence (whole entry): T1 sequence (O69002 whole entry)

[4] = biological target: T2, Heme oxygenase (Pseudomonas aeruginosa); experiment: Binding affinity to Pseudomonas aeruginosa HemO by STD-NMR method

**Q.** Which Kd (Heme oxygenase) does the source give for `COC(=O)c1ccc(-c2ccc(C=C3SC(=S)N(CCC(=O)O)C3=O)o2)cc1` here?
**A.** 28 µM

**Q.** For `O=C(O)CCN1C(=O)/C(=C/c2ccc(Cl)cc2)SC1=S`, which Kd (Heme oxygenase) is on record?
**A.** 15 µM

**Q.** With `O=C(O)CCN1C(=O)/C(=C/c2ccco2)SC1=S` as the compound, how does the Kd (Heme oxygenase) read?
**A.** 38 µM

**Q.** How did the Kd (Heme oxygenase) turn out when `CC(C)c1ccc(/C=C2\SC(=S)N(CCC(=O)O)C2=O)cc1` was run?
**A.** 10 µM

**Q.** `O=C(O)CCN1C(=O)/C(=C/c2c[nH]c3ccccc23)SC1=S` was tested. Which Kd (Heme oxygenase) did it give?
**A.** 6.4 µM

**Q.** With `COC(=O)c1cccc(-c2ccc(C=C3SC(=S)N(CCC(=O)O)C3=O)o2)c1` as the compound, how does the Kd (Heme oxygenase) read?
**A.** 7.6 µM

**Q.** How did the Kd (Heme oxygenase) turn out when `O=C(O)CCN1C(=O)C(=Cc2ccc3ccccc3c2)SC1=S` was run?
**A.** 3.9 µM

**Q.** With `O=C1NC(=S)SC1=Cc1ccc(-c2ccccc2)cc1` as the compound, how does the Kd (Heme oxygenase) read?
**A.** 2.3 µM

**Q.** What about the MIC50 (Pseudomonas aeruginosa [1]) of the same compound?
**A.** inactive

**Q.** And the MBEC99.9 (Pseudomonas aeruginosa [2])?
**A.** >300 µg/mL

**Q.** With `O=C(O)CCN1C(=O)C(=Cc2cccc3ccccc23)SC1=S` as the compound, how does the Kd (Heme oxygenase) read?
**A.** 13 µM

**Q.** For `O=C(O)CCN1C(=O)/C(=C/c2ccc(O)c(O)c2)SC1=S`, which Kd (Heme oxygenase) is on record?
**A.** 57 µM

**Q.** With `O=C1/C(=C/c2ccco2)SC(=S)N1CCc1nn[nH]n1` as the compound, how does the Kd (Heme oxygenase) read?
**A.** 26 µM

**Q.** Which Kd (Heme oxygenase) does the source give for `CN(C)CCN1C(=O)C(=Cc2ccc(-c3ccccc3)cc2)SC1=S` here?
**A.** 18 µM

**Q.** What about the MIC50 (Pseudomonas aeruginosa [1]) of the same compound?
**A.** inactive

**Q.** What about the MBEC99.9 (Pseudomonas aeruginosa [2]) of the same compound?
**A.** >300 µg/mL

**Q.** Which results are given for `O=C(O)CCN1C(=O)C(=Cc2ccc(-c3ccccc3)cc2)SC1=S`?
**A.** Kd (Heme oxygenase): 3.3 µM; MIC50 (Pseudomonas aeruginosa [1]; PAO1, 4 h): > 300 µg/mL; MBEC99.9 (Pseudomonas aeruginosa [2]): >300 µg/mL; Activity [3]: Active

**Q.** How did the Kd (Heme oxygenase) turn out when `O=C(O)CCN1C(=O)/C(=C/c2ccccn2)SC1=S` was run?
**A.** 51 µM

**Q.** With `O=C(O)CCN1C(=O)/C(=C/c2ccc(Cl)c(Cl)c2)SC1=S` as the compound, how does the Kd (Heme oxygenase) read?
**A.** 14 µM

**Q.** Which Kd (Heme oxygenase) does the source give for `COc1ccc(/C=C2\SC(=S)N(CCC(=O)O)C2=O)cc1` here?
**A.** 23 µM

**Q.** With `N#Cc1cccc(-c2ccc(C=C3SC(=S)N(CCC(=O)O)C3=O)o2)c1` as the compound, how does the Kd (Heme oxygenase) read?
**A.** 13 µM

**Q.** Which Kd (Heme oxygenase) does the source give for `O=C(O)CCN1C(=O)C(=Cc2ccc(-c3cccc(O)c3)o2)SC1=S` here?
**A.** 1.1 µM

**Q.** What about the MIC50 (Pseudomonas aeruginosa [1]; PAO1, 4 h) of the same compound?
**A.** > 300 µg/mL

**Q.** And the MBEC99.9 (Pseudomonas aeruginosa [2])?
**A.** >300 µg/mL

**Q.** And the Activity [3]?
**A.** Active

**Q.** With `O=C1/C(=C/c2ccc(O)c(O)c2)SC(=S)N1CCc1nnn[nH]1` as the compound, how does the Kd (Heme oxygenase) read?
**A.** 45 µM

**Q.** `COc1cccc(/C=C2\SC(=S)N(CCC(=O)O)C2=O)c1` was tested. Which Kd (Heme oxygenase) did it give?
**A.** 25 µM

**Q.** With `O=C(O)CCN1C(=O)/C(=C/c2cn(Cc3ccccc3)c3ccccc23)SC1=S` as the compound, how does the Kd (Heme oxygenase) read?
**A.** 7.4 µM

**Q.** For `O=C(O)CCN1C(=O)/C(=C/c2ccc(F)cc2)SC1=S`, which Kd (Heme oxygenase) is on record?
**A.** 44 µM

**Q.** Which results are given for `O=C1/C(=C/c2ccccn2)SC(=S)N1CCc1nnn[nH]1`?
**A.** Kd (Heme oxygenase): 27 µM; Activity [4]: Active; Activity [3]: Active

**Q.** `O=C1Nc2ccc(Cl)cc2/C1=C\c1ccc(-c2ccccc2)cc1` was tested. Which Kd (Heme oxygenase) did it give?
**A.** 5.2 µM

**Q.** What about the MIC50 (Pseudomonas aeruginosa [1]) of the same compound?
**A.** inactive

**Q.** What about the MBEC99.9 (Pseudomonas aeruginosa [2]) of the same compound?
**A.** >300 µg/mL

**Q.** Which Kd (Heme oxygenase) does the source give for `COC(=O)c1cc(-c2ccc(C=C3SC(=S)N(CCC(=O)O)C3=O)o2)ccc1N` here?
**A.** 6.5 µM

**Q.** How did the Kd (Heme oxygenase) turn out when `O=C(O)CCN1C(=O)/C(=C/c2cccc(Nc3ccccc3)c2)SC1=S` was run?
**A.** 1.2 µM

**Q.** What about the MIC50 (Pseudomonas aeruginosa [1]; PAO1, 4 h) of the same compound?
**A.** > 300 µg/mL

**Q.** What about the MBEC99.9 (Pseudomonas aeruginosa [2]) of the same compound?
**A.** >300 µg/mL

**Q.** And the Activity [3]?
**A.** Active

**Q.** `NCCN1C(=O)/C(=C/c2ccc(-c3ccccc3)cc2)SC1=S` was tested. Which Kd (Heme oxygenase) did it give?
**A.** 43 µM

**Q.** And the MIC50 (Pseudomonas aeruginosa [1]; PAO1, 4 h)?
**A.** > 300 µg/mL

**Q.** What about the MBEC99.9 (Pseudomonas aeruginosa [2]) of the same compound?
**A.** >300 µg/mL

**Q.** For `O=C(O)CCN1C(=O)C(=Cc2cccc(-c3ccccc3)c2)SC1=S`, which Kd (Heme oxygenase) is on record?
**A.** 20 µM

**Q.** How did the Kd (Heme oxygenase) turn out when `O=C(O)CCN1C(=O)/C(=C/c2ccc(Oc3ccccc3)cc2)SC1=S` was run?
**A.** 6.5 µM

**Q.** With `O=C(O)CCN1C(=O)/C(=C/c2ccc(Cc3ccccc3)cc2)SC1=S` as the compound, how does the Kd (Heme oxygenase) read?
**A.** 7 µM
